The test system of data set [1] is S180 tumor-bearing mice. The note with it: cited from earlier work. The text has this:
We previously described a peptide-conjugated photosensitizer (ZnPc-(Lys)5), zinc phthalocyanine (ZnPc) conjugated with pentalysine peptidyl moiety, and reported its in vitro and in vivo efficacy. The pentalysine peptide renders water solubility of ZnPc that is otherwise not soluble in physiological condition and requires specialized formulation with, e.g., Cremophor EL. […] Herein we report the synthesis and the physicochemical characterization of this ZnPc-GnRH conjugate, along with the evaluation of its photodynamic activity at cellular level. […] This work p ...

The conditions of data set [2]: in DMSO; ref 20; cited from earlier work. The text has this: Table 1 Photophysical parameters of ZnPc-GnRH conjugate in DMSO compared to that of ZnPc in DMSO. | column: Фf
For data set [3] the following is noted: in DMSO, cited from earlier work. An excerpt: Table 1 Photophysical parameters of ZnPc-GnRH conjugate in DMSO compared to that of ZnPc in DMSO. | column: τs (ns)
Data set [4] is described as follows: Fluorescence quantum yield, comparative method with ZnPc as standard. The format is physicochemical. The note with it: in DMSO, ZnPc standard (Фf 0.2). As to the method:
Fluorescence quantum yield (Фf) of ZnPc-GnRH conjugate was measured by a comparative method using ZnPc as a standard (Фf (ZnPc) in DMSO = 0.2) using the Eq. (1) [drawing 1] (1) where Фf and Ф0 are fluorescence quantum yields of the conjugate and standard, respectively. Au and A0 are absorbances of the conjugate and standard, respectively. Fu and F0 are areas under the emission curves of the conjugate and standard, respectively. nu and n0 are refractive indices of the solvents used for the conjugate and standard, respectively. The fluorescence of the conjugate and standard were measured on a Cary Eclipse Fluorescence spectrophotometer (Varian, Inc., Walnut Creek, CA).

The nature of data set [5]: Fluorescence decay time by time-correlated single photon counting. In kind it is physicochemical. The note with it: in DMSO, 300 K, fitted decay curve. As to the method:
Fluorescence decay time (τs) of ZnPc-GnRH conjugate was measured by time-correlated single photon counting experiment of fluorescence excited with a 1.2 ns pulse laser diode at 460 nm, performed on an Edinburgh Instruments FLS920 spectrofluorometer (Livingston, UK) at 300 K. Fluorescence lifetimes were estimated by fitting the decay data using an interactive deconvolution procedure based on Marquardt algorithm with software supplied by OriginLab.

Data set [6] in a line: Singlet oxygen quantum yield determination (DPBF decay). In kind it is physicochemical. The note with it: in DMSO; 0.5 µM; DPBF decay at 417 nm; 670 nm laser at 80 mW cm−2; ZnPc reference (0.67); error less than 10%. As to the method: The PDT effect of ZnPc type photosensitizer is usually mediated by type II mechanism involving singlet oxygen (^1O2) as major cytotoxic agent. The quantum yield of ^1O2 generation by ZnPc-GnRH was determined by comparing with the un-substituted zinc phthalocyanine (ZnPc) as reference, which has a quantum yield of 0.67 in DMSO [21]. Briefly, a 2 ml DMSO solution of the mixture of the ZnPc-GnRH conjugate (0.5 µM) and 1,3-diphenylisobenzofuran (DPBF, a scavenger molecule for ^1O2), was introduced to the spectrophotometric cell of 1 cm path length and illuminated with a laser light (670 nm at 80 mW cm^−2) in the presence of air (without degassing). The DPBF decay at 417 nm was monitored every 5 s. The concentration of DPBF was kept lower than 3×10^−5 M during the experiment to avoid chain reactions induced by DPBF in the presence of ^1O2. The quantum yield measurement has an error of less than 10%.

Data set [7] deals with MDA-MB-231.
Experimental: (§1) The cell lines we used in the current study were human breast cancer cell lines (MDA-MB-231 and MCF-7), human hepatoblastoma cell line (HepG2) and human embryo lung fibroblasts (HELF). All these cell lines were purchased from American Type Culture Collection (ATCC, Manassas, VA, USA).
(§2) MDA-MB-231 and MCF-7 cells were maintained routinely in Dulbecco’s modified Eagle’s medium (DMEM) supplemented with 10% fetal calf serum (FCS) and antibiotics. HepG2 and HELF cells were grown in RPMI-1640 supplemented with 10% FCS and antibiotics. All cells were kept at 37°C in a humidified incubator with 5% CO2 atmosphere. The viability of cells was determined by Trypan blue dye exclusion. Cells were maintained in logarithmic phase with viability >95%.
(§3) Cells at a density of 2.5×10^5 per ml in a volume of 200 µl per well were placed in 96-multiwell black opaque plates and incubated overnight at 37°C under 5% CO2. […] The plates were illuminated at a light dosage of 1.5 J cm^−2 using a 670 nm SAS-DL3 medical laser (Beijing Shou’anshan Electronic Technology Co. Ltd. Beijing, China) and then returned to incubator; dark toxicity was measured in parallel. After 24 hr incubation, cell viability was measured on a microplate reader (Synergy 4, BioTek Instruments) using the AlamarBlue® fluorometric cell viability assay (BioSource International Inc., Camarillo, CA, USA) with λex 530 nm and λem 585 nm. […]
For data set [8], the system named is MCF-7.
Experimental: as §1, §2, §3
The test system of data set [9] is HELF.
Experimental: as §1, §2, §3
The test system of data set [10] is HepG2.
Experimental: as §1, §2, §3
For data set [11], the system named is MCF-7 cells.
Experimental: 200 µl of MCF-7 cells (at a density of 2.5×10^5 per ml) were seeded in each well of 96-multiwell black opaque plates and incubated overnight at 37°C under 5% CO2. After treated with or without Cetrorelix (at a concentration of 7.5×10^−7 M), a GnRH antagonist, for 12 hr at 37°C, MCF-7 cells were washed twice with sterile PBS before fresh medium was added. These exponentially growing MCF-7 cells were then allowed to incubate with ZnPc-GnRH conjugate (at a concentration of 5×10^−6 M) for various time periods (5, 10, 20, 40, 80, 120 and 180 min) before the cellular uptakes were measured at different incubation time points as described above to determine the cellular uptake curves.
The test system of data set [12] is MDA-MB-231. The data set is described as follows: Phototoxicity and dark toxicity, AlamarBlue cell viability. The note with it: read-out: Phototoxicity IC50 (50% growth inhibition), 12 hr incubation, 670 nm laser, 1.5 J cm−2, viability after 24 hr. Background: The colour change of resazurin is a common sign of viable cells or microbes.
Experimental: as §1, §2, §3
For data set [13], the system named is MCF-7. The data set is described as above. The note with it: read-out: Phototoxicity IC50 (50% growth inhibition), 12 hr incubation, 670 nm laser, 1.5 J cm−2, viability after 24 hr.
Experimental: as §1, §2, §3
In data set [14] the test system is HELF. The data set is described as follows: Cellular uptake (fluorescence of cell lysate). The format is cell-based, human. The note with it: 10^−7 to 10^−4.5 M, 12 hr, 37°C, 0.2% Cremophor EL (ZnPc-COOH), mean of four experiments.
Experimental: (§4) Aliquots of cells (2.5×10^5 per ml growth medium) were placed in 96-multiwell black opaque plates (Costa) and incubated overnight at 37°C under 5% CO2. Various concentrations (10^−7, 10^−6.5, 10^−6, 10^−5.5, 10^−5 and 10^−4.5 M) of ZnPc-GnRH conjugate (in 1% DMSO) or ZnPc-COOH (in an additional 0.2% Cremophor EL) were added and incubated with cells at 37°C. After 12 hr incubation, the exponentially growing cells were washed with sterile PBS before lysis with NaOH (0.1 N, 0.2 ml with 1% SDS) to give a homogenous solution. The fluorescence of the cell extract was measured on a microplate reader (Synergy 4, BioTek Instruments) with λex = 610 nm and λem = 690 nm. The concentration of cellular protein was determined with a BCA Protein Assay Kit (BioTeke Corporation, Beijing, China). Standard curves were made with cell lysates treated as above with known added amounts of bovine serum albumin. Results are expressed as nmol photosensitizer per mg cell protein.
Data set [15] concerns HepG2. The data set is described as follows: Cellular uptake (fluorescence of cell lysate). The format is cell-based, human. The note with it: 10^−7 to 10^−4.5 M, 12 hr, 37°C, 0.2% Cremophor EL (ZnPc-COOH), mean of four experiments.
Experimental: as §4
Data set [16] has as its system MCF-7. The data set is described as follows: Cellular uptake (fluorescence of cell lysate). The note with it: 10^−7 to 10^−4.5 M, 12 hr, 37°C, 1% DMSO (ZnPc-GnRH) or 0.2% Cremophor EL (ZnPc-COOH), lysate fluorescence λex 610/λem 690 nm, mean of four experiments.
Experimental: as §4
Data set [17] relates to MDA-MB-231. Description: Cellular uptake (fluorescence of cell lysate). The note with it: 10^−7 to 10^−4.5 M, 12 hr, 37°C, 1% DMSO (ZnPc-GnRH) or 0.2% Cremophor EL (ZnPc-COOH), mean of four experiments.
Experimental: as §4

The source of these data is article PMC3365043, “Receptor-Targeting Phthalocyanine Photosensitizer for Improving Antitumor Photocytotoxicity” (PLoS ONE, 2012).

Like-named read-outs stand apart in the source and are kept apart here.

For “pentalysine phthalocyanine zinc [ZnPc-(Lys)5]”, in data set [1] (S180 tumor-bearing mice), the “Selectivity for tumor over brain tissue” value is given as 6 fold and the “Selectivity for tumor over muscle tissue” value was 2 fold.
Regarding `[Zn+2].c1ccc2c(c1)-c1nc-2nc2[n-]c(nc3nc([n-]c4nc(n1)-c1ccccc1-4)-c1ccccc1-3)c1ccccc21` [ZnPc, Zinc phthalocyanine], in [2], the “Fluorescence quantum yield (Фf)” value was 0.20 [20]. Moreover, the “Fluorescence decay time (τs)” value in data set [3] (ref 23) is 1.22 ns; in data set [3] (ref 24), 3.6 ns. Besides, the “Distribution in murine brain” value in data set [1] (murine brain) was “very low level of distribution”.
The term IC50 denotes the concentration at which inhibition is half-maximal. For `CC(C)C[C@H](NC(=O)CNC(=O)[C@H](Cc1ccc(O)cc1)NC(=O)[C@H](CO)NC(=O)[C@H](Cc1c[nH]c2ccccc12)NC(=O)[C@H](Cc1c[nH]cn1)NC(=O)[C@H](CCC(=O)O)NC(=O)c1ccc2c3nc4nc(nc5[nH]c(nc6nc(nc([nH]3)c2c1)-c1ccccc1-6)c1ccccc51)-c1ccccc1-4)C(=O)N[C@@H](CCCNC(=N)N)C(=O)N1CCC[C@H]1C(=O)NCC(=O)O` [ZnPc-GnRH], the “Fluorescence quantum yield (Фf)” value in [4] was 0.17. Moreover, the “Fluorescence decay time (τs)” value in data set [5] is on record as 2.7 ns. In addition, the “Singlet oxygen quantum yield (ФΔ)” value in [6] came to 0.73. Moreover, the Dark toxicity result in [7], in data set [8], in data set [9] and in [10] was “no obvious cellular dark toxicity” in each case. Besides, the Phototoxicity result in data set [9] (HELF, 10^−7 to 10^−4.5 M, 12 hr incubation, 670 nm, 1.5 J cm−2) is reported as “no significant phototoxicity”; in data set [10] (HepG2, 10^−7 to 10^−4.5 M, 12 hr incubation, 670 nm, 1.5 J cm−2) it was “no significant phototoxicity”. Besides, the “Time at which cellular uptake reached the maximal level” value in data set [11] is approximately 2 h. Further, the IC50 was 1320 nM in data set [12] and 1820 nM in [13].
As for “Mono-substituted β-carboxyphthalocyanine zinc [ZnPc-COOH]”, the Cellular uptake result in [14], in data set [15], in [16] and in data set [17] was “low levels of cellular uptakes” each time.
